According to patent US20230211004A1, “TETANUS TOXOID AND CRM-BASED PEPTIDES AND METHODS OF USE” (UNIVERSITY OF GEORGIA RESEARCH FOUNDATION, INC., priority 2019, published 2023):
“Also recorded” adds a separate entry of the source.

Experiments:
CD4+ T cells = type: cell-based, human
[1] = tested on: IFN-γ production by CD4+ T cell enriched donor PBMCs; type: cell-based, human
[2] = tested on: MHCII molecules (HLA-DR, HLA-DP, HLA-DQ) of Raji B cells; type: binding, human

Sequence	Donor 1 CFSE (CD4+ T cells)	Donor 2 CFSE (CD4+ T cells)	Donor 4 CFSE (CD4+ T cells)	number of donors with positive T cell proliferative response (CD4+ T cells)	Donor 2 IFN-γ [1]	IFN-γ production [1]	Donor 3 CFSE (CD4+ T cells)	donors that gave positive / significant T cell response (CD4+ T cells)	Donor 1 IFN-γ [1]	Donor 3 IFN-γ [1]	Donor 4 IGN-γ [1]	number of donors with significant levels of IFN-γ [1]	CD4+ T cell proliferation compared to basal growth rate (CD4+ T cells)	T cell response against previously published TT epitopes (CD4+ T cells)	Observed in Isotypes [2]
DRILRVGYNAPGIPL (TT-derived peptide) [TT1222-1236]	* (key: * p < 0.05; ** p < 0.005; *** p < 0.0005)	*** (key: * p < 0.05; ** p < 0.005; *** p < 0.0005)	* (key: * p < 0.05; ** p < 0.005; *** p < 0.0005)	three	*** (key: * p < 0.05; ** p < 0.005; *** p < 0.0005)	significant production of IFN-γ									
NFIGALET (TT-derived peptide) [TT660-667]			*** (key: * p < 0.05; ** p < 0.005; *** p < 0.0005)			significant levels of IFN-γ response	** (key: * p < 0.05; ** p < 0.005; *** p < 0.0005)	Donors 3 and 4	* (key: * p < 0.05; ** p < 0.005; *** p < 0.0005)	* (key: * p < 0.05; ** p < 0.005; *** p < 0.0005)	* (key: * p < 0.05; ** p < 0.005; *** p < 0.0005)	at least three			
NILMQYIKANSK (TT-derived peptide) [TT826-837]				one						* (key: * p < 0.05; ** p < 0.005; *** p < 0.0005)			no significant response		
GYVDSIQKGIQKPK (CRM-derived peptide) [CRM26-39]	* (key: * p < 0.05; ** p < 0.005; *** p < 0.0005)		*** (key: * p < 0.05; ** p < 0.005; *** p < 0.0005)	three	** (key: * p < 0.05; ** p < 0.005; *** p < 0.0005)	significant levels of IFN-γ response; also recorded: significant production of IFN-γ	* (key: * p < 0.05; ** p < 0.005; *** p < 0.0005)		** (key: * p < 0.05; ** p < 0.005; *** p < 0.0005)	* (key: * p < 0.05; ** p < 0.005; *** p < 0.0005)	*** (key: * p < 0.05; ** p < 0.005; *** p < 0.0005)	at least three	increased proliferation		
GLTKVLALKVD (CRM-derived peptide) [CRM87-97]			*** (key: * p < 0.05; ** p < 0.005; *** p < 0.0005)		** (key: * p < 0.05; ** p < 0.005; *** p < 0.0005)	significant levels of IFN-γ response; also recorded: significant production of IFN-γ	** (key: * p < 0.05; ** p < 0.005; *** p < 0.0005)	Donors 3 and 4	* (key: * p < 0.05; ** p < 0.005; *** p < 0.0005)	*** (key: * p < 0.05; ** p < 0.005; *** p < 0.0005)	** (key: * p < 0.05; ** p < 0.005; *** p < 0.0005)	at least three	not significant compared to basal growth rate		
KFIIKRYTPNNEIDSF (TT-derived peptide) [Peptide P32, reference compound]		*** (key: * p < 0.05; ** p < 0.005; *** p < 0.0005)	*** (key: * p < 0.05; ** p < 0.005; *** p < 0.0005)		** (key: * p < 0.05; ** p < 0.005; *** p < 0.0005)		** (key: * p < 0.05; ** p < 0.005; *** p < 0.0005)			** (key: * p < 0.05; ** p < 0.005; *** p < 0.0005)	* (key: * p < 0.05; ** p < 0.005; *** p < 0.0005)			no significant response	
LYNGLKFIIKR (TT-derived peptide) [TT1169-1179]	* (key: * p < 0.05; ** p < 0.005; *** p < 0.0005)	*** (key: * p < 0.05; ** p < 0.005; *** p < 0.0005)		three	* (key: * p < 0.05; ** p < 0.005; *** p < 0.0005)	significant production of IFN-γ	* (key: * p < 0.05; ** p < 0.005; *** p < 0.0005)			* (key: * p < 0.05; ** p < 0.005; *** p < 0.0005)	* (key: * p < 0.05; ** p < 0.005; *** p < 0.0005)	at least three			
KTTAALSILPGIGS (CRM-derived peptide) [CRM299-312]	*** (key: * p < 0.05; ** p < 0.005; *** p < 0.0005)	*** (key: * p < 0.05; ** p < 0.005; *** p < 0.0005)	*** (key: * p < 0.05; ** p < 0.005; *** p < 0.0005)	four	** (key: * p < 0.05; ** p < 0.005; *** p < 0.0005)	significant levels of IFN-γ response; also recorded: significant production of IFN-γ	** (key: * p < 0.05; ** p < 0.005; *** p < 0.0005)		* (key: * p < 0.05; ** p < 0.005; *** p < 0.0005)	* (key: * p < 0.05; ** p < 0.005; *** p < 0.0005)	** (key: * p < 0.05; ** p < 0.005; *** p < 0.0005)	at least three	increased proliferation		pulled down in the HLA-DP specific immunoprecipitation; also recorded: pulled down in the -DQ IP; also recorded: identified through the -DR IP; also recorded: DR, DP, DQ
TPLPIAGVLLPTIPGK (CRM-derived peptide) [CRM425-440]		*** (key: * p < 0.05; ** p < 0.005; *** p < 0.0005)	*** (key: * p < 0.05; ** p < 0.005; *** p < 0.0005)	three	** (key: * p < 0.05; ** p < 0.005; *** p < 0.0005)	significant production of IFN-γ	** (key: * p < 0.05; ** p < 0.005; *** p < 0.0005)	Donors 2,3, and 4		** (key: * p < 0.05; ** p < 0.005; *** p < 0.0005)	*** (key: * p < 0.05; ** p < 0.005; *** p < 0.0005)	at least three	increased proliferation		pulled down in the -DQ IP; also recorded: DR, DQ
LFNRIKNNVAGEAL (TT-derived peptide) [TT94-107]		*** (key: * p < 0.05; ** p < 0.005; *** p < 0.0005)	** (key: * p < 0.05; ** p < 0.005; *** p < 0.0005)	three	** (key: * p < 0.05; ** p < 0.005; *** p < 0.0005)	significant production of IFN-γ	*** (key: * p < 0.05; ** p < 0.005; *** p < 0.0005)			** (key: * p < 0.05; ** p < 0.005; *** p < 0.0005)	* (key: * p < 0.05; ** p < 0.005; *** p < 0.0005)	at least three	increased proliferation		
QYIKANSKFIGITEL (TT-derived peptide) [Peptide P2, reference compound]			*** (key: * p < 0.05; ** p < 0.005; *** p < 0.0005)				* (key: * p < 0.05; ** p < 0.005; *** p < 0.0005)				* (key: * p < 0.05; ** p < 0.005; *** p < 0.0005)		did not show increased proliferation; also recorded: did not show significant proliferation	no significant response	
GYNAPGIPLYKK (TT-derived peptide) [TT1228-1239]			*** (key: * p < 0.05; ** p < 0.005; *** p < 0.0005)				** (key: * p < 0.05; ** p < 0.005; *** p < 0.0005)	Donors 3 and 4		** (key: * p < 0.05; ** p < 0.005; *** p < 0.0005)	** (key: * p < 0.05; ** p < 0.005; *** p < 0.0005)				
CKALNPKEIE (TT-derived peptide) [TT1093-1102]			*** (key: * p < 0.05; ** p < 0.005; *** p < 0.0005)		* (key: * p < 0.05; ** p < 0.005; *** p < 0.0005)	significant levels of IFN-γ response; also recorded: significant production of IFN-γ	** (key: * p < 0.05; ** p < 0.005; *** p < 0.0005)	Donors 3 and 4	* (key: * p < 0.05; ** p < 0.005; *** p < 0.0005)	** (key: * p < 0.05; ** p < 0.005; *** p < 0.0005)	* (key: * p < 0.05; ** p < 0.005; *** p < 0.0005)	at least three	not significant compared to basal growth rate		pulled down in the -DQ IP; also recorded: DR, DQ
